Data as given in patent publication US20100273868A1, “R-Zileuton for Use in Conditions Associated with Increased 5-Lipoxygenase and/or Leukotriene Activity (EG Asthma)” (Cornerstone Therapeutics Inc., priority 2007, published 2010).
Blank lines part the entries; values can stand above or below the compound they belong to.

Columns and labels:
[1] = test system: cellular infiltration of airways; experiment: Murine model of allergic lung inflammation, ovalbumin challenge, BAL 24 h after final challenge (Example 4); format: in vivo, BALB/c mice; details: oral
Experimental: Male, BALB/c mice were sensitized intraperitoneally (i.p.) with ovalbumin (10 μg) on days 1 and 14. To provoke an allergic lung inflammatory response, the mice received three intransal (i.n.) challenges with ovalbumin (100 μg) (or saline for sham) on days 29, 30 and 31. After sensitization period, animals were treated orally 30 minutes prior to ovalbumin challenge on days 29, 30 and 31 according to the following regimes: racemic Zileuton (10 mg/kg, four times daily (qid)), Montelukast (0.17 mg/kg, once daily (qd)), Dexamethasone (4 mg/kg, once daily (qd)). Twenty-four hours following the final challenge (n=16 per group, pool of two separate studies), animals were sacrificed and bronchoalveolar lavage (BAL) was performed. Infiltration of airways by inflammatory cells was quantified by cytospin, microscopy and/or flow cytometry. The dose levels and frequencies of zileuton and montelukast were chosen to approximate the human clinical use. Zileuton, Montelukast and Dexamethasone were compared to their respective “qid” and “qd” controls.

[2] = test system: LTB4 production in human whole blood; experiment: Human whole blood assay of LTB4 inhibition; format: cell-based; details: for IC50: A23187 50 μM
Experimental: The potency of racemic and (R)-zileuton was assessed in fresh human whole blood essentially by the methods of Carter et al., J. Pharm. Exp. Ther. 1991: 256:929. Briefly, 0.5.ml of heparinized (20 USP U/ml) human blood from each donor was incubated with vehicle (DMSO), or various concentrations of racemic zileuton, (R)-zileuton or (S)-zileuton (prepared in DMSO) for fifteen minutes at 37° C. Eicosanoid biosynthesis was initiated by the addition of calcium ionophore A23187 in DMSO to a final concentration of 50 μM (final DMSO concentration of 1%). Samples were incubated for an additional 30 minutes at 37° C. in the presence of A23187. The reaction was terminated by cooling in an ice bath for 2 minutes followed by centrifugation. The plasma was then salvaged to an EIA buffer (1M phosphate buffer, pH 7.4) then stored at −80° C. until assay. The level of LTB4 was analyzed by enzyme immunoassay.

[3] = test system: infiltration of inflammatory cells to the airways; experiment: Mouse model of asthma, ovalbumin challenge, BAL 8 h after final challenge (Example 5); format: in vivo, BALB/c mice; details: for inhibition of eosinophils in BAL fluid / inhibition of neutrophil infiltration in BAL fluid / inhibition of the increase in total cellularity of BAL fluid: 4 mg/kg; for efficacy compared with racemic zileuton or S(−) zileuton: 2 or 4 mg/kg oral once a day
Experimental: Male BALB/c mice were obtained from Taconic Labs (Taconic, N.Y.) and maintained on an OVA-free (ovalbumin-free) diet. After equilibration of at least 5 days, animals were sensitized to OVA and then challenged by the following procedure. On days 1 and 14, sensitization was performed by intraperitoneal (ip) injections of 10 μg OVA emulsified in 2 mg Al(OH)3 (aluminum hydroxide (Aldrox)) in a volume of […]. On days 29, 30 and 31, allergen challenge was performed via intranasal instillation of 20 μL (10 μL/nare) of OVA (1 mg/mL) under light isoflurane anesthesia.
The background control group received no sensitization and no challenge. The sham control group underwent the OVA sensitization procedure, but was challenged with PBS. The vehicle control group was used to determine the maximal response level achievable.
Animals were given Zileuton (at 2 or 4 mg/kg, by mouth (po), once daily (qd)) or (orally) 30 minutes prior to each ovalbumin challenge. Eight hours after the final ovalbumin challenge, animals were sacrificed and bronchoalveolar lavage (BAL) was performed. A tracheal tube was inserted into the trachea and the lungs were lavaged 2 times with pyrogen-free, sterile, PBS containing 0.01% EDTA and 0.05% BSA (Bovine serum albumin). Lavage fluid, maintained at room temperature, was slowly injected into the lungs; lungs were manually massaged to distribute fluid for 30 seconds, bronchoalveolar lavage fluid (BALF) was slowly withdrawn and salvaged to individually-labeled, sterile, polypropylene tubes. The procedure was repeated 2 times/animal and the lavage fluids were pooled. The magnitude of the infiltration of inflammatory cells to the airways was determined by flow cytometry.

[4] = test system: LTB4 production in canine whole blood; experiment: Ex vivo inhibition of A23187-stimulated LTB4 production in canine whole blood after oral dosing; details: Canis lupus familiaris, dogs; for inhibition at 10 mg/kg: 10 mg/kg oral; for inhibition at 5 mg/kg: 5 mg/kg oral
Experimental: To determine the pharmacodynamics of racemic and (R)-zileuton, ex vivo, in fresh canine whole blood, a 0.5 ml aliquot was removed from each pharmacokinetic sample of the study. Each 0.5 ml aliquot of blood was placed into an individually-labeled, 1.5 ml polypropylene tube. Five (5) μl of a 5 mM calcium ionophore A23187 solution (in DMSO) was added to each sample and mixed for 10 seconds on a vortex. Final concentration of A23187 in whole blood was 50 μM (final DMSO concentration was 1%). After mixing, each sample was placed into a 37° C. circulating water bath and allowed to incubate for 30 minutes. […] After incubation, each sample was removed from the water bath and immediately placed onto wet ice for 2 minutes. The samples were removed from the ice after 2 minutes and immediately centrifuged in an Eppendorf Microfuge (VWR Scientific, USA) at 14,000 rpm for 2 minutes at ambient room temperature. After centrifugation, the supernatant (plasma) was collected, diluted into EIA buffer (1M phosphate buffer, pH 7.4) then stored at −80° C. until assay. The level of LTB4 was analyzed by enzyme immunoassay (Cayman Chemical Co., Ann Arbor, Mich.).

[5] = Plasma concentration-time profile (AUC) after oral dosing to dogs; format: in vivo, beagle dogs; details: for AUC: beagle, dog, plasma, gelcaps
Experimental: The plasma concentration-time profiles for racemic zileuton and (R)-zileuton were evaluated in beagle dogs dosed orally with either 10 mg/kg racemic zileuton or 5 mg/kg (R)-zileuton in gelcaps. Following oral dosing blood samples were collected from the test animals into sodium-EDTA anticoagulant tubes at selected time points up to 48 hours post-dose, processed into plasma and analysed by an LC-MS/MS method for zileuton concentration. The LC-MS/MS method utilized a 0.1% trifluoroacetic in water and methanol gradient HPLC system (initial 45:55 to 10:90% over 4 minutes with a Zorbax SB-C18 4.6×30 mm column at a flow rate of 1.5 mL/min). The retention time of zileuton was 2.0 minutes. A stable labeled version of zileuton was used to internally standardize the analysis. Mass spectrometer analysis by electrospray ionization of the HPLC eluent was performed in SRM mode (ESI 3.5 kV; tube lens voltage 71.0; capillary offset 40.3; L11-24.3; capillary temperature 350° C.; dwell 100 msec; collision energy 15 eV). Plasma concentrations of zileuton in the test samples were estimated by interpolation of sample peak area/height data from a standard concentration-peak area/height plot. The area under the plasma concentration-time (AUC) was calculated by non-compartmental pharmacokinetic analysis (WinNonlin, Pharsight, Mountain View, Calif.) using the trapezoidal rule.

SMILES: C[C@@H]1C[C@H]2[C@@H]3CCC4=CC(=O)C=C[C@]4(C)[C@@]3(F)[C@@H](O)C[C@]2(C)[C@@]1(O)C(=O)CO [Dexamethasone]
% Inhibition Eosinophils ([1]; 4 mg/kg, qd): 99.2 ± 0.02% | % Inhibition Neutrophils ([1]; 4 mg/kg, qd): 90.5 ± 1.1% | % Inhibition Total cells ([1]; 4 mg/kg, qd): 62.5 ± 1.5%

SMILES: CC(c1cc2ccccc2s1)N(O)C(N)=O (racemic) [racemic zileuton, (±)-1-(1-Benzo[b]thien-2-ylethyl)-1-hydroxyurea]
IC50 [2]: 745 nM | % Inhibition Eosinophils ([1]; 10 mg/kg, qid): 99.2 ± 0.02% | % Inhibition Neutrophils ([1]; 10 mg/kg, qid): 87.9 ± 2.3% | % Inhibition Total cells ([1]; 10 mg/kg, qid): 62.2 ± 1.7% | inhibition of eosinophils in BAL fluid ([3]; po, qd, versus vehicle control): 67% | inhibition of neutrophil infiltration in BAL fluid ([3]; po, qd, versus vehicle control): 54% | inhibition of the increase in total cellularity of BAL fluid ([3]; po, qd, versus vehicle control): 66% | inhibition at 10 mg/kg ([4]; 36 hours after administration): ~84% | inhibition at 10 mg/kg ([4]; time points between 30 minutes and 24 hours after administration): 100% | AUC ([5]; 10 mg/kg po): 87000 ng·h/mL

SMILES: CC(C)(O)c1ccccc1CC[C@@H](SCC1(CC(=O)O)CC1)c1cccc(/C=C/c2ccc3ccc(Cl)cc3n2)c1 [Montelukast]
% Inhibition Eosinophils ([1]; 0.17 mg/kg, qd): 99.2 ± 0.02% | % Inhibition Neutrophils ([1]; 0.17 mg/kg, qd): 23.3 ± 6.6% | % Inhibition Total cells ([1]; 0.17 mg/kg, qd): 53.3 ± 6.5%

IC50 [2]: 4770 nM
SMILES: C[C@@H](c1cc2ccccc2s1)N(O)C(N)=O [(S)-zileuton]
inhibition of eosinophils in BAL fluid ([3]; po, qd, versus vehicle control): 51% | inhibition of neutrophil infiltration in BAL fluid ([3]; po, qd, versus vehicle control): 35% | inhibition of the increase in total cellularity of BAL fluid ([3]; po, qd, versus vehicle control): not significantly effective

S(−) zileuton IC50/R(+) zileuton IC50 ratio [2]: 11.9 | IC50 [2]: 399 nM | share of the racemic zileuton AUC ([5]; FIG. 1): 58% | AUC ([5]; 5 mg/kg po): 52000 ng·h/mL
SMILES: C[C@H](c1cc2ccccc2s1)N(O)C(N)=O [(R)-zileuton]
inhibition of the total cell infiltration ([3]; 2 mg/kg, po, qd, versus vehicle control): 66% | inhibition of eosinophils in BAL fluid ([3]; po, qd, versus vehicle control): 75% | inhibition of neutrophil infiltration in BAL fluid ([3]; po, qd, versus vehicle control): 65% | inhibition of the increase in total cellularity of BAL fluid ([3]; po, qd, versus vehicle control): 85% | efficacy compared with racemic zileuton or S(−) zileuton [3]: significantly greater efficacy than racemic zileuton | efficacy compared with racemic zileuton or S(−) zileuton ([3]; listed as R(+) zileuton): greater efficacy | inhibition at 5 mg/kg ([4]; 36 hours after administration): ~74% | inhibition at 5 mg/kg ([4]; time points between 60 minutes and 24 hours after administration): > 91%
